Experimental data as given in the SangsterLogP compilation.

Experiments:
[1] = method code SF-HPLC, from DOI: 10.1002/jps.2600830309, PMID: 8207673; details: pH 7.5

Row | logD (pH 7.5) | Structure (SMILES) | also measured
1 | 3.22 | COc1cc(Br)cc(C(=O)NC[C@@H]2CCCN2CCF)c1OC | 
2 |  | CCOc1c(OC)cc(I)c(O)c1C(=O)NC[C@@H]1CCCN1CC | logD (pH 7.4): 2.52
3 | 4.71 | CCc1cc(Cl)c(O)c(C(=O)NC[C@@H]2CCCN2CCF)c1OC | 
4 |  | CCOc1ccc(I)c(O)c1C(=O)NC[C@@H]1CCCN1CC | logD [1]: 2.84
